{
  "source": "patent US20130140210A1",
  "about": "“LOW-DOSED SOLID ORAL DOSAGE FORMS FOR HRT” (BAYER INTELLECTUAL PROPERTY GMBH, priority 2010, published 2013)",
  "origin": "cited, not measured here",
  "system": "moderate or severe hot flushes in menopausal women",
  "conditions": "2 mg E2",
  "data": [
    {"molecule": "C[C@]12CC[C@@H]3c4ccc(O)cc4CC[C@H]3[C@@H]1CC[C@@H]2O", "note": "[E2, estradiol]", "values": [
      {"measurement": "estrogen-related adverse events", "value": "increased estrogen-related adverse events"}
    ]}
  ]
}
